Experiment [1] concerns the target Cruzipain (Trypanosoma cruzi) (UniProt P25779). Put plainly: Inhibition of Trypanosoma cruzi cruzain upto 7.22 mM.
The target is the same in experiment [2]. Put plainly: Inhibition of Trypanosoma cruzi cruzain upto 38.71 mM.
The target is the same in experiment [3]. Put plainly: Inhibition of Trypanosoma cruzi cruzain.
Experiment [4] shares this target. Put plainly: Inhibition of Trypanosoma cruzi cruzain upto 0.67 mM.

The source made the active and inactive calls. The calls are words filed in the database; no cut-off is given here.

Chain of Cruzipain (Trypanosoma cruzi) (P25779 123-467 limits assumed): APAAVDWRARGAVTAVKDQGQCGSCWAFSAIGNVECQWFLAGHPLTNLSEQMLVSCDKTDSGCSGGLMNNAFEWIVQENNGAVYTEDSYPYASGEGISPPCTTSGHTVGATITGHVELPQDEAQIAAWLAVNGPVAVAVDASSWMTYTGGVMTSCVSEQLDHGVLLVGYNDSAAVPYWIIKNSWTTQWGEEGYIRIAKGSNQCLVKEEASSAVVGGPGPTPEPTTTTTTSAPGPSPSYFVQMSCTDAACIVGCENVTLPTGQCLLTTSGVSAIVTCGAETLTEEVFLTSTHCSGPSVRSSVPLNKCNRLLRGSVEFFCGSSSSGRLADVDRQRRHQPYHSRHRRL

As to `N#CC1(NC(=O)c2cc3ccccc3oc2=O)CCCCC1`, in experiment [1], the outcome was inactive.

In the case of `N#Cc1ccsc1NC(=O)/C=C/c1cccc(Cl)c1`, the outcome in experiment [2] was inactive. Take `O=C(/C=C/c1cccs1)NC(Cc1ccccc1)c1nc2ccccc2[nH]1` (stereo unspecified): in experiment [3], the Activity is 44.9 µM. Still for that read-out and setting: to `N#Cc1c(NC(=O)CC(NC(=O)c2ccccc2Cl)c2ccccc2)sc2c1CCCC2` (stereo unspecified) belongs 4.17 µM; to `N#Cc1ccccc1NC(=O)C(=O)Nc1ccccc1C#N`, 17.3 µM. For `O=C(NC(Cc1c[nH]c2ccccc12)C(=O)N/N=C1\CCCN1)c1cccs1` (stereo unspecified), the outcome in experiment [4] was inactive.

(Values after ChEMBL document CHEMBL1143234, “Uncovering false positives on a virtual screening search for cruzain inhibitors” (Bioorg Med Chem Lett, 2008).)
